system: HBV viral production from HepAD38 cells; test: Activity of test compounds on viral production from HepAD38 cells (viral load by qPCR of HBV core sequence in supernatant); assay type: cell-based; details: Hepatitis B virus, 120 h, 5 days incubation, HBV DNA in supernatant by qPCR, top concentration 10 μM, read-out: Viral Load EC50 Activity range
In short: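 HepAD38 cells, 50,000/well in tetracycline-free 2% FBS medium, treated 5 days at 37° C. with compound from 10 μM top concentration. HBV DNA in supernatant quantified by TaqMan qPCR of core sequence against DNA standards, relative to DMSO wells; CellTiter-Glo viability read in parallel. EC50/CC50 from four-parameter logistic fit.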

SMILES | EC50
CN1[C@H](C(=O)Nc2ccc(F)c(Cl)c2)C[C@H](c2ncc(-c3c[nH]cn3)s2)NS1(=O)=O [HBV-CSU-333-ISO-I, 5-(5-(1H-imidazol-4-yl)thiazol-2-yl)-N-(3-chloro-4-fluorophenyl)-2-methyl-1,2,6-thiadiazinane-3-carboxamide 1,1-dioxide] | < 1000 nM
CCc1sc(C2CC(C(=O)Nc3ccc(F)c(Cl)c3)N(C)S(=O)(=O)N2)cc1Br (stereo not drawn) [HBV-CSU-334, 5-(4-bromo-5-ethylthiophen-2-yl)-N-(3-chloro-4-fluorophenyl)-2-methyl-1,2,6-thiadiazinane-3-carboxamide 1,1-dioxide] | < 1000 nM
Cc1cc(C2CC(C(=O)Nc3ccc(F)c(Cl)c3)N(C)S(=O)(=O)N2)sc1Br (stereo not drawn) [HBV-CSU-335, Cis-5-(5-bromo-4-methylthiophen-2-yl)-N-(3-chloro-4-fluorophenyl)-2-methyl-1,2,6-thiadiazinane-3-carboxamide 1,1-dioxide] | < 1000 nM
[2H]C([2H])([2H])N1C(C(=O)Nc2ccc(F)c(Cl)c2)CC(c2ncc(Br)s2)NS1(=O)=O (stereo not drawn) [HBV-CSU-336, 5-(5-Bromothiazol-2-yl)-N-(3-chloro-4-fluorophenyl)-2-(methyl-d3)-1,2,6-thiadiazinane-3-carboxamide 1,1-dioxide] | < 1000 nM
[2H]C([2H])([2H])N1[C@H](C(=O)Nc2ccc(F)c(Cl)c2)C[C@H](c2ncc(Br)s2)NS1(=O)=O [HBV-CSU-336-ISO-I, 5-(5-Bromothiazol-2-yl)-N-(3-chloro-4-fluorophenyl)-2-(methyl-d3)-1,2,6-thiadiazinane-3-carboxamide 1,1-dioxide] | < 1000 nM
[2H]C([2H])([2H])N1[C@@H](C(=O)Nc2ccc(F)c(Cl)c2)C[C@@H](c2ncc(Br)s2)NS1(=O)=O [HBV-CSU-336-ISO-II, 5-(5-Bromothiazol-2-yl)-N-(3-chloro-4-fluorophenyl)-2-(methyl-d3)-1,2,6-thiadiazinane-3-carboxamide 1,1-dioxide] | 1000 to 5000 nM
[2H]C([2H])([2H])N1[C@H](C(=O)Nc2ccc(F)c(Cl)c2)C[C@H](c2ncc(-c3cn(C([2H])([2H])[2H])cn3)s2)NS1(=O)=O [HBV-CSU-337-ISO-I, Cis-N-(3-Chloro-4-fluorophenyl)-2-(methyl-d3)-5-(5-(1-(methyl-d3)-1H-imidazol-4-yl)thiazol-2-yl)-1,2,6-thiadiazinane-3-carboxamide 1,1-dioxide] | < 1000 nM
[2H]C([2H])([2H])N1[C@H](C(=O)Nc2ccc(F)c(Cl)c2)C[C@H](c2ncc(-c3cn(C)cn3)s2)NS1(=O)=O [HBV-CSU-338-ISO-I, Cis-N-(3-Chloro-4-fluorophenyl)-2-(methyl-d3)-5-(5-(1-methyl-1H-imidazol-4-yl)thiazol-2-yl)-1,2,6-thiadiazinane-3-carboxamide 1,1-dioxide] | < 1000 nM
CN1[C@H](C(=O)Nc2ccc(F)c(Cl)c2)C[C@H](c2ccc3c(c2)ncn3C)NS1(=O)=O [HBV-CSU-360-ISO-I, Cis-N-(3-chloro-4-fluorophenyl)-2-methyl-5-(1-methyl-1H-benzo[d]imidazol-5-yl)-1,2,6-thiadiazinane-3-carboxamide 1,1-dioxide] | 1000 to 5000 nM
CN1[C@H](C(=O)Nc2ccc(F)c(Br)c2)C[C@H](c2ncc(-c3cn(C)cn3)s2)NS1(=O)=O [HBV-CSU-369, (3S,5R)—N-(3-bromo-4-fluorophenyl)-2-methyl-5-(5-(1-methyl-1H-imidazol-4-yl)thiazol-2-yl)-1,2,6-thiadiazinane-3-carboxamide 1,1-dioxide] | < 1000 nM
[2H]C([2H])([2H])N1[C@H](C(=O)Nc2ccc(F)c(Cl)c2)C[C@H](c2ccc(Br)s2)NS1(=O)=O [HBV-CSU-370-ISO-I, Cis-5-(5-bromothiophen-2-yl)-N-(3-chloro-4-fluorophenyl)-2-(methyl-d3)-1,2,6-thiadiazinane-3-carboxamide 1,1-dioxide] | < 1000 nM
[2H]C1C([2H])(c2ccc(Br)s2)NS(=O)(=O)N(C)C1([2H])C(=O)Nc1ccc(F)c(Cl)c1 (stereo not drawn) [HBV-CSU-371, Cis-5-(5-Bromothiophen-2-yl)-N-(3-chloro-4-fluorophenyl)-2-methyl-1,2,6-thiadiazinane-3,4,5-d3-3-carboxamide 1,1-dioxide] | < 1000 nM
